#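 GI50 marks 50% less growth. Definition used: TGI = concentration required for complete inhibition of growth.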
# Assays:
# Experiment in all cases: NCI anticancer screen, dose series, 384-well format
# HCT-116 colon = tested on: HCT-116 colon
# HL-60(TB) leukemia = tested on: HL-60(TB) leukemia
# KM12 colon = tested on: KM12 colon
# HOP-92 NSCLC = tested on: HOP-92 NSCLC
# HCC-2998 colon = tested on: HCC-2998 colon
# SK-MEL-5 melanoma = tested on: SK-MEL-5 melanoma
# UACC-257 melanoma = tested on: UACC-257 melanoma
# OVCAR-3 ovarian = tested on: OVCAR-3 ovarian
# A549 NSCLC = tested on: A549 NSCLC
# ACHN renal = tested on: ACHN renal
# HCT-15 colon = tested on: HCT-15 colon
# NCI-H23 lung = tested on: NCI-H23 lung
# 786-0 renal = tested on: 786-0 renal
structure (smiles),measurement,setting,value
CC(C)(C)C[C@H]1N[C@@H](C(=O)NC2CCC(O)CC2)[C@H](c2cccc(Cl)c2F)[C@@]12C(=O)Nc1cc(Cl)ccc12 (stereo partly specified),GI50,HCT-116 colon,0.304 µM
same,TGI,HCT-116 colon,11.7 µM
same,GI50,HL-60(TB) leukemia,2.21 µM
same,TGI,HL-60(TB) leukemia,4.44 µM
same,GI50,KM12 colon,2.15 µM
same,TGI,KM12 colon,16.2 µM
same,GI50,HOP-92 NSCLC,8.42 µM
same,TGI,HOP-92 NSCLC,21.4 µM
same,GI50,HCC-2998 colon,9.2 µM
same,TGI,HCC-2998 colon,21.3 µM
same,GI50,SK-MEL-5 melanoma,2.57 µM
same,TGI,SK-MEL-5 melanoma,13.1 µM
same,GI50,UACC-257 melanoma,0.556 µM
same,TGI,UACC-257 melanoma,2.4 µM
same,GI50,OVCAR-3 ovarian,6.74 µM
same,TGI,OVCAR-3 ovarian,19.2 µM
same,GI50,A549 NSCLC,0.5 µM
same,TGI,A549 NSCLC,11.9 µM
same,GI50,ACHN renal,0.218 µM
same,TGI,ACHN renal,2.53 µM
same,GI50,HCT-15 colon,10.7 µM
same,TGI,HCT-15 colon,22.9 µM
same,GI50,NCI-H23 lung,10 µM
same,TGI,NCI-H23 lung,22.5 µM
same,GI50,786-0 renal,8.2 µM
same,TGI,786-0 renal,21.1 µM

# Source: PubChem BioAssay (NCI)
